Data reported in US12540164B2, “Peptides for treatment and prevention of nonalcoholic fatty liver disease and fibrosis” (UNIVERSITE DE STRASBOURG, priority 2017, dated 2026).
“Also recorded” adds a separate entry of the source. Ends that are not written are not given here.

Legend:
Collagen IV = experiment: Immunostaining of kidney cryosections for Collagen IV; type: in vivo; conditions: DIO(-NASH) mice 3 months post treatment; vs vehicle
Excerpt: Cryosections of kidneys from DIO vehicle treated and DIO ADPIF treated mice 3 months post treatment, were immunostained for collage IV deposition and tight junction with a ZO-1 antibody to assess the effect of ADPIF peptide on fibrosis progression in other soft tissues. For immunofluorescence experiments, liver and kidneys freshly sampled were included in Optimal Cutting Temperature Compound™ (OCT™, Catalog #4583, Tissue-Tek® OCT™, Sakura® Finetek, Torrance, California, USA) and cryosections of 7 μm were cut with Cryostat Leica CM1950. Cryosections were washed with 1×PBS and fixated in 4% formaldehyde solution for 15 min (Catalog #: F555-4L, Sigma-Aldrich, Saint-Louis, Missouri, USA) and then permeabilized with 0.02% SDS-PBS for 30 seconds. Blocking solution was 5%-Bovine Serum Albumin (BSA) in PBS. Primary antibodies were diluted in blocking solution and incubated overnight and indicated secondary antibodies were diluted in PBS for 30 minutes. Nuclei were counterstained with Hoechst (Catalog #: D1306, Invitrogen, Carlsbad, California, USA). Slides were then mounted with Vectashield® Mounting Medium (Catalog #: H-1000, Vector Laboratories, Burlingame, California, USA). Images were acquired and analyzed with Zeiss Imager.Z2 microscope equipped with either Zeiss AxioVision or Zeiss ZEN 2012 software (Carl Zeiss Inc., Oberkochen, Germany). […]

LOXL2 [1] = experiment: Immunostaining of liver cryosections for LOXL2 (DIO-NASH); type: in vivo; conditions: DIO-NASH mice, 3 months after injection in subcutaneous adipose tissue; vs untreated
Experimental: For immunofluorescence experiments, liver and kidneys freshly sampled were included in Optimal Cutting Temperature Compound™ (OCT™, Catalog #4583, Tissue-Tek® OCT™, Sakura® Finetek, Torrance, California, USA) and cryosections of 7 μm were cut with Cryostat Leica CM1950. Cryosections were washed with 1×PBS and fixated in 4% formaldehyde solution for 15 min (Catalog #: F555-4L, Sigma-Aldrich, Saint-Louis, Missouri, USA) and then permeabilized with 0.02% SDS-PBS for 30 seconds. Blocking solution was 5%-Bovine Serum Albumin (BSA) in PBS. Primary antibodies were diluted in blocking solution and incubated overnight and indicated secondary antibodies were diluted in PBS for 30 minutes. Nuclei were counterstained with Hoechst (Catalog #: D1306, Invitrogen, Carlsbad, California, USA). Slides were then mounted with Vectashield® Mounting Medium (Catalog #: H-1000, Vector Laboratories, Burlingame, California, USA). Images were acquired and analyzed with Zeiss Imager.Z2 microscope equipped with either Zeiss AxioVision or Zeiss ZEN 2012 software (Carl Zeiss Inc., Oberkochen, Germany). Anti-Collagen IV antibody, ab6586 from Abcam and LOXL2 antibody, GTX105085 from GeneTex were used.

[2] = STAM model of non-alcoholic steatohepatitis: body weight, viability and general condition; type: in vivo; conditions: STAM NASH mice, any day during the treatment period
Experimental: NASH was induced in 12 male mice by a single subcutaneous injection of 200 μg streptozotocin (STZ, Sigma-Aldrich, USA) solution 2 days after birth and feeding with high fat diet (HFD, 57 kcal % fat, Cat #HFD32, CLEA Japan, Inc., Japan) after 4 weeks of age.
The peptide was administered at a dose of 25 microgram (μg) per mouse once weekly.
Six NASH mice were subcutaneously in the adipose tissue administered vehicle supplemented with ADPIF peptide at a dose of […] per mouse once weekly from 4 to 9 weeks of age.
The viability, clinical signs and behavior were monitored daily. Body weight was recorded before the treatment. […] The animals were sacrificed at 9 weeks of age by exsanguination through direct cardiac puncture under isoflurane anesthesia (Pfizer Inc.).

ceramides = experiment: Hepatic ceramides content and profile (lipidomics); type: in vivo, mice; conditions: 3 injections, one per week, in subcutaneous adipose tissue
Excerpt: ADPIF adipose tissue injection has proven to be unexpectedly liver protective relative to a specific decrease in expression levels of FATP2 in the adipose tissue and an associated profile of the FATPs and FFARs in the muscles and liver. As these changes impact circulating population of the different lipids. Ceramides are a group of biological active lipids known to be involved in NAFLD. We measured and determined the effect of ADPIF injections on the ceramides profile following 3 injections of ADPIF at a frequency of one injection per week in the subcutaneous adipose tissue.
For the lipid composition in the different tissues and plasma, all samples were flashed frozen at the time of sampling, immediately after sacrifice, and were sent to the lipidomic core facility of Dijon, (Plateforme de Lipidomique-uBorgogne INSERM UMR866/Labex LipSTIC).

FATP2 = experiment: Expression levels of FATPs and FFARs in adipose tissue by real-time PCR after peptide injection; type: in vivo, mice; conditions: 11 days post single injection in subcutaneous adipose tissue, GAPDH reference, n=4 per group
Experimental: Mice were injected with a single dose of either scramble peptide or PATAD or ADPIF. 11 days post injection, the mice were euthanized and adipose tissue was sampled for RNA extraction followed by real-time PCR.
For this study, mice were on a C57/BL6 genetic background. All animals were housed in a temperature and humidity controlled facility, with a 12 h-light/12 h-dark cycle fed during the whole phase mice will be fed with a 60% high fat diet from Research Diets (D12492), and tap water will be provided ad libitum. Mice were fed and tested regularly for glucose tolerance test for their glucose tolerance and once they were glucose intolerant they were used for treatment.
All peptides were initially dissolved in DMSO and then diluted in sterile saline solution at a concentration of 10 ng/μL. 2.5 μL of each peptide (stapled or scrambled) were mixed and then injected directly in the subcutaneous adipose tissue in each mouse.

[3] = system: ALT (alanine aminotransferase); experiment: Plasma ALT ELISA; type: in vivo, mice; conditions: 3 months after a single subcutaneous peptide injection, n=4
Experimental: Mice presented were euthanized and their plasma and organs were sampled for analysis. […] Cryosection of the livers were then stained with Adipored and DAPI to detect the level of lipid droplets. […] Hepatic function is assessed by two liver related strong biomarkers namely (AST (Aspartate Aminotransferase) and ALT (Alanine Aminotransferase)), whose levels increase proportionately with liver damage.
Plasma samples from the indicated mice were used to determine plasma content of either AST (aspartate aminotransferase) or […] (alanine aminotransferase) both robust indicators of liver damage were measured using commercially purchased ELISA kits. These parameters were determined according to manufacturer's procedure. • SEB214Mu (96 Tests): Enzyme-linked Immunosorbent Assay Kit For Aspartate Aminotransferase (AST), Cloud Clone Corp. • SEA207Mu (96 Tests): Enzyme-linked Immunosorbent Assay Kit For Alanine Aminotransferase (ALT), Cloud Clone Corp.

LOXL2 [4] = experiment: Circulating (plasma) LOXL2 ELISA; type: in vivo; conditions: 3 months post a unique injection; DIO-NASH mice
Excerpt: For LOXL2 and GLP-1 measurements, the two commercially available kits: Lysyl Oxydase Like Protein 2 (LOXL2), Enzyme-linked Immunosorbent Assay Kit, Mus musculus, SEF552Mu, Cloud Clone Corp;

VECTTREKEVLASLDKAAFLTQLHS (not fully specified (bridges)) [ADPIF, R and S carry the stapling, preferably 2-(7-octenyl)arginine and 2-(4-pentenyl)serine]
Collagen IV depots in the kidney (immunostaining) (Collagen IV): clear reduction; also recorded: More depots of Collagen IV are observed in the DIO-NASH vehicle than in the ADPIF treated
LOXL2 expression in liver (immunostaining) (LOXL2 [1]): effective in preventing the progression of fibrotic markers; also recorded: reduced
mean body weight compared with the Vehicle group [2]: no significant differences
hepatic ceramides content (ceramides): globally induces a decrease
FATP2 expression level in the adipose tissue (FATP2): more active than PATAD peptide
circulating levels of ALT [3]: dramatic decrease; also recorded: more active in reducing circulating levels of ALT
circulation (plasma) levels of LOXL2 (LOXL2 [4]): significantly reduced; also recorded: reduced the LOXL2 levels by half
